Data set [1] can be described thus: Antimicrobial activity / minimum inhibitory concentrations on seven strains of bacteria. Particulars: read-out: MIC values. The data set is classed as cell-based. The protocol: (§1) Seven strains of bacteria were used in the assessment of the antimicrobial activity of the ILs claimed: 4 gram negative and three gram positive as shown below.
(§2) A wide concentration range was tested (0-20000 μg/ml). The concentrations screened for antibacterial activity are generally from 2 μg/ml to 1000 μg/ml (Table 6). […] The concentration range screened for the ILs containing ethers was up to 20000 μg/ml. At these high concentrations a lack of antibacterial activity is a significant result.

Data set [2] relates to Pseudomonas aeruginosa, Escherichia coli, Klebsiella sp., Salmonella sp., Staphylococcus aureus, Enterococcus sp., Bacillus subtilis. The data set is described as above. Particulars: for toxicity / antibacterial activity in words: seven strains of bacteria; for MIC values: seven strains, not split, range tested 0-20000 μg/ml. The data set is classed as cell-based. On the procedure:
as §1, §2

[3] abbreviates: seven strains, not split, range tested 0-20000 μg/ml.

“Also recorded” adds a separate entry of the source. Read-outs that look alike come from different tables or passages of the source. Where only a bound is given, the exact number is not on record here.

One may read the MIC as the smallest concentration in the dilution series that meets the test's criterion for growth inhibition. Consider `CCOCCOC(=O)Cn1cc[n+](C)c1.[Br-]` [KG8, 3-methyl-1-(2-[2-ethoxy]ethoxycarbonylmethyl)imidazolium bromide], for which the MIC in data set [1] (setting [3]) is more than 20 mg/mL. Moreover, the “toxicity / antibacterial activity in words” value in data set [2] is “non-toxic”.

On to `CC(C)OCCOC(=O)Cn1cc[n+](C)c1.[Br-]` [KG9, 3-methyl-1-(2-[2-propoxy]ethoxycarbonylmethyl)imidazolium bromide], for which, in data set [1] (setting [3]), the MIC was more than 20 mg/mL. Moreover, in data set [2], the “toxicity / antibacterial activity in words” value was “non-toxic”.

As to `CCC(C)OCCOC(=O)Cn1cc[n+](C)c1.[Br-]` (stereo not drawn) [KG10, 3-methyl-1-(2-[2-butoxy]ethoxycarbonylmethyl)imidazolium bromide], the minimum inhibitory concentration (MIC) in data set [1] (setting [3]) is more than 20 mg/mL. The “toxicity / antibacterial activity in words” value in data set [2] is “non-toxic”.

Take `COCCOCCOC(=O)Cn1cc[n+](C)c1.[Br-]` [KG12, 3-methyl-1-(2-[2-methoxyethoxy]ethoxycarbonylmethyl)imidazolium bromide]: in data set [1] (setting [3]), the MIC is more than 20 mg/mL. The “toxicity / antibacterial activity in words” value in data set [2] was “non-toxic”.

With `CCOCCOCCOC(=O)Cn1cc[n+](C)c1.[Br-]` [KG13, 3-methyl-1-(2-[2-ethoxyethoxy]ethoxycarbonylmethyl)imidazolium bromide], the MIC in data set [1] is more than 20 mg/mL. For the same molecule, the “toxicity / antibacterial activity in words” value in data set [2] is given as “non-toxic”.

Consider `CCCOCCOCCOC(=O)Cn1cc[n+](C)c1.[Br-]` [KG14, 3-methyl-1-(2-[2-propoxyethoxy]ethoxycarbonylmethyl)imidazolium bromide], for which the MIC in data set [1] (setting [3]) is more than 20 mg/mL. Moreover, the “toxicity / antibacterial activity in words” value in data set [2] was “non-toxic”.

As to `CCCCOCCOCCOC(=O)Cn1cc[n+](C)c1.[Br-]` [KG15, 3-methyl-1-(2-[2-butoxyethoxy]ethoxycarbonylmethyl)imidazolium bromide], in data set [1] (setting [3]), the MIC was more than 20 mg/mL. The entries for the “toxicity / antibacterial activity in words” value in data set [2] and in data set [2] (listed as KG 15) were “non-toxic” and “low toxicity”, respectively.

As to `CCC(C)OCCOC(=O)Cn1cc[n+](C)c1C.[Br-]` (stereo not drawn) [KG16, 2,3-dimethyl-1-(2-[2-butoxy]ethoxycarbonylmethyl)imidazolium bromide], in data set [1], the minimal inhibitory concentration (MIC) is more than 20 mg/mL. The “toxicity / antibacterial activity in words” value in data set [2] is on record as “non-toxic”.

Take `CCCCCOC(=O)Cn1cc[n+](C)c1.[Br-]` [KG17, 3-Methyl-1-(pentoxycarbonylmethyl) imidazolium bromide]: the MIC in data set [1] (setting [3]) was more than 20 mg/mL.

Regarding `COCCOCCOC(=O)Cn1cc[n+](C)c1C.[Br-]` [KG18, 2,3-dimethyl-1-(2-[2-methoxyethoxy]ethoxycarbonylmethyl)imidazolium bromide], the MIC in data set [1] (setting [3]) is more than 20 mg/mL. The “toxicity / antibacterial activity in words” value in data set [2] was “non-toxic”.

Regarding `CCCCOC(=O)Cn1cc[n+](C)c1.[Br-]` [KG19, 3-Methyl-1-(butoxycarbonylmethyl) imidazolium bromide], the minimum inhibitory concentration (MIC) in data set [1] (setting [3]) is more than 20 mg/mL.

With `CCCCOC(=O)C[n+]1ccn(C)c1` [KG34, 3-methyl-1-(butoxycarbonylmethyl)imidazolium octylsulfate], in data set [1] (setting [3]), the MIC amounted to 5 mg/mL. For the same molecule, the “toxicity / antibacterial activity in words” value in data set [2] is “non-toxic”.

Consider `CCCCCOC(=O)C[n+]1ccn(C)c1` [KG35, 3-methyl-1-(pentoxycarbonylmethyl)imidazolium octylsulfate], for which the minimal inhibitory concentration (MIC) in data set [1] (setting [3]) was more than 20 mg/mL. Also, the “toxicity / antibacterial activity in words” value in data set [2] is reported as “non-toxic”.

On to `COCCOC(=O)C[n+]1ccn(C)c1` [KG36, 3-methyl-1-(2-[2-methoxy]ethoxycarbonylmethyl)imidazolium octylsulfate], for which the MIC in data set [1] (setting [3]) is more than 20 mg/mL. Besides, the “toxicity / antibacterial activity in words” value in data set [2] is “non-toxic”.

With `CCOCCOC(=O)C[n+]1ccn(C)c1` [KG37, 3-methyl-1-(2-[2-ethoxy]ethoxycarbonylmethyl)imidazolium octylsulfate], the MIC in data set [1] (setting [3]) is more than 20 mg/mL. Moreover, the “toxicity / antibacterial activity in words” value in data set [2] was “non-toxic”.

As for `CCCOCCOC(=O)C[n+]1ccn(C)c1` [KG38, 3-methyl-1-(2-[2-propoxy]ethoxycarbonylmethyl)imidazolium octylsulfate], the MIC in data set [1] (setting [3]) was more than 20 mg/mL. Besides, in data set [2], the “toxicity / antibacterial activity in words” value was “non-toxic”.

Take `CCCCOCCOC(=O)C[n+]1ccn(C)c1` [KG39, 3-methyl-1-(2-[2-butoxy]ethoxycarbonylmethyl)imidazolium octylsulfate]: the MIC in data set [1] (setting [3]) was more than 20 mg/mL. Also, the “toxicity / antibacterial activity in words” value in data set [2] is given as “non-toxic”.

Turning to `CCCOCCOCCOC(=O)Cn1cc[n+](C)c1.N#C[N-]C#N` [KG81, 3-methyl-1-(2-[2-propoxyethoxy]ethoxycarbonylmethyl)imidazolium N(CN)2], in data set [2], the “toxicity / antibacterial activity in words” value is “non-toxic” and the MIC values is more than 20000 KG81 μg/ml.

Turning to `CCCCOCCOCCOC(=O)Cn1cc[n+](C)c1.N#C[N-]C#N` [KG82, 3-methyl-1-(2-[2-butoxyethoxy]ethoxycarbonylmethyl)imidazolium N(CN)2], in data set [2], the “toxicity / antibacterial activity in words” value is “non-toxic” and the MIC values is more than 20000 KG82 μg/ml.

With `CCCCOCCOC(=O)Cn1cc[n+](C)c1C.N#C[N-]C#N` [KG84, 2,3-dimethyl-1-(2-[2-butoxy]ethoxycarbonylmethyl)imidazolium N(CN)2], in data set [2], the “toxicity / antibacterial activity in words” value is reported as “non-toxic” and the MIC values was more than 20000 KG84 μg/ml.

`COCCOCCOC(=O)C[n+]1ccn(C)c1C.N#C[N-]C#N` [KG85, 2,3-dimethyl-1-(2-[2-methoxyethoxy]ethoxycarbonylmethyl)imidazolium N(CN)2]: in data set [2], the “toxicity / antibacterial activity in words” value was “non-toxic” and the MIC values was more than 20000 KG85 μg/ml.

As for `Cn1cc[n+](CC(=O)N2CCCC2)c1` [KG403, 3-methyl-1-(pyrrolidinylcarbonylmethyl)imidazolium octylsulfate, reference compound], in data set [1] (setting [3]), the MIC was more than 20 mg/mL.

Consider `Cc1n(C)cc[n+]1CC(=O)N1CCCC1` [KG404, 2,3-dimethyl-1-(pyrrolidinylcarbonylmethyl)imidazolium octylsulfate, reference compound], for which the minimum inhibitory concentration (MIC) in data set [1] (setting [3]) was more than 20 mg/mL.

On to `COC(C)N(C(=O)Cn1cc[n+](C)c1)C(C)OC.[Br-]` (stereo not drawn) [KG407, (3-methyl-1-[bis-1-methoxyethyl]carbamylmethyl)imidazolium bromide], for which, in data set [2], the “toxicity / antibacterial activity in words” value is listed as “low toxicity; also recorded: non-toxic” and the MIC values is on record as more than 20000 KG407 μg/ml.

On to `C[n+]1ccn(CC(=O)N2CCCC2)c1.[Br-]` [KG420, 3-methyl-1-(pyrrolidinylcarbonylmethyl)imidazolium bromide, reference compound], for which, in data set [2], the MIC values is on record as more than 20000 KG420 μg/ml.

Turning to `Cc1n(CC(=O)N2CCCC2)cc[n+]1C.[Br-]` [KG421, 2,3-dimethyl-1-(pyrrolidinylcarbonylmethyl)imidazolium bromide, reference compound], the MIC values in data set [2] is recorded as more than 20000 KG421 μg/ml.

As for `COC(C)NC(=O)C[n+]1ccn(C)c1.[Br-]` (stereo not drawn) [KG422, (3-methyl-1-[1-methoxyethyl]carbamylmethyl)imidazolium bromide], in data set [2], the “toxicity / antibacterial activity in words” value is reported as “low toxicity; also recorded: non-toxic” and the MIC values is recorded as more than 20000 KG422 μg/ml.

For `CCC(NC(=O)Cn1cc[n+](C)c1)OC.[Br-]` (stereo not drawn) [KG423, (3-methyl-1-[1-methoxypropyl]carbamylmethyl)imidazolium bromide], in data set [2], the “toxicity / antibacterial activity in words” value is given as “low toxicity” and the MIC values was more than 20000 KG423 μg/ml.
